# Data: publication PMC7615677 (Science translational medicine, 2023)
# Read-outs that look alike come from different tables or passages of the source.
# Columns and labels:
# hERG = hERG (Homo sapiens, UniProt Q12809); experiment: hERG channel test (Qpatch / Qube); format: cell-based; set-up: host or cells: Chinese hamster ovary cells; details: Qpatch hERG
# Method: Two concentrations (1 and 30 μM, two replicates each) were tested at room temperature.
# [1] = system: L. donovani promastigote cultures; experiment: microbe, parasite or virus in culture; format: cell-based; details: Leishmania donovani
# Method: (§1) The clonal L. donovani cell line LdBOB (derived from MHOM/SD/62/1S-CL2D) was grown as promastigotes at 28°C and as axenic amastigotes at 37°C, as described previously ([25]).
# (§2) To examine the effects of test compounds on growth in 96-well plates, promastigote or axenic amastigote cultures seeded at 5 × 10^4 parasites mL^–1 were incubated in the presence of 2-fold serial dilutions of test compounds for 72 h. Following incubation, 50 μM resazurin was added to each well and fluorescence (excitation of 528 nm and emission of 590 nm) measured after a further 3 h incubation.
# Starting at sublethal concentrations, drug concentrations in 5 independent cultures were increased in a stepwise manner, usually by 2-fold. […] Five clones (Res 1–5) were selected for further biological study.
# [2] = In vitro metabolism, liver microsomes; format: in vitro ADME, human
# Method: Compounds were spiked into microsomal matrix prepared in 0.1 M pH 7.4 phosphate buffer containing magnesium chloride (final concentration of 3.3 mM), equilibrated for 5-10 min at 37°C. The reaction was initiated with the addition of freshly prepared solution of NADPH (final 1.3 mM). Control samples without co-factor were included for comparison. Aliquots of the reaction mixtures were taken periodically over 60 min and quenched with acetonitrile containing internal standards (metolazone and diazepam). Quenched samples were maintained on ice for approximately 20-30 min, centrifuged (for 5 min) and the supernatant was analyzed by LC-MS.
# In vitro intrinsic clearance (CLint, μL/min/mg or μL/min/10^6 cells) values were calculated from the apparent first order degradation rate constant divided by the microsome concentration or the hepatocyte cell number (10^6 viable cells/mL). In vitro CLint values were then divided by the fraction unbound in the in vitro test system (to give CLint,u) and scaled to in vivo values (mL/min/kg) using published physiological scaling factors ([28]). Blood clearance in each species was then calculated using the well-stirred model of hepatic extraction (equation 2) where Q is the hepatic blood flow and fu,blood is calculated from fu,plasma/B:P: [2] PredictedCLblood=Q x fu,blood x CLint,u/Q+fu,blood x CLint,u
# Blood clearance values were converted to plasma clearance by multiplying by the B:P.
# dopamine transporter = biological target: T1, dopamine transporter (Homo sapiens, UniProt Q01959); experiment: In vitro pharmacology panel (Eurofins); format: binding; details: read-out: activity (% of DMSO control)
# T1 construct: purchased Eurofins (Cerep/DiscoverX SafetyScreen44 in vitro pharmacology panel)
# Description: (§3) Listed values represent the percent change relative to the DMSO control activity. When an IC50 had to be determined, eight different concentrations were included. All values are the mean of assay readout duplicates.
# CB2 = biological target: T2, CB2 (Homo sapiens, UniProt P34972); experiment: In vitro pharmacology panel (Eurofins); format: binding; details: read-out: activity (% of DMSO control)
# T2 construct: purchased Eurofins (Cerep/DiscoverX SafetyScreen44 in vitro pharmacology panel)
# Description: as §3
# [3] = In vitro cytotoxicity assay; format: cell-based; details: human, THP1 human monocytic leukaemia cells
# [4] = system: L. donovani axenic amastigotes; experiment: Drug sensitivity assay, axenic amastigotes; format: cell-based; details: Leishmania donovani
# Method: as §1, §2
# [5] = In vitro cytotoxicity assay; format: cell-based; details: monkey, Vero monkey kidney epithelial cells
# CYP2C8 = biological target: T3, CYP2C8 (Homo sapiens, UniProt P10632); experiment: Cytochrome P450 inhibition, human liver microsomes; format: in vitro ADME
# T3 construct: incubation of isoform-specific substrates with human liver microsomes; from tissue; host or cells: human liver microsomes
# T3 sequence (P10632 1-490): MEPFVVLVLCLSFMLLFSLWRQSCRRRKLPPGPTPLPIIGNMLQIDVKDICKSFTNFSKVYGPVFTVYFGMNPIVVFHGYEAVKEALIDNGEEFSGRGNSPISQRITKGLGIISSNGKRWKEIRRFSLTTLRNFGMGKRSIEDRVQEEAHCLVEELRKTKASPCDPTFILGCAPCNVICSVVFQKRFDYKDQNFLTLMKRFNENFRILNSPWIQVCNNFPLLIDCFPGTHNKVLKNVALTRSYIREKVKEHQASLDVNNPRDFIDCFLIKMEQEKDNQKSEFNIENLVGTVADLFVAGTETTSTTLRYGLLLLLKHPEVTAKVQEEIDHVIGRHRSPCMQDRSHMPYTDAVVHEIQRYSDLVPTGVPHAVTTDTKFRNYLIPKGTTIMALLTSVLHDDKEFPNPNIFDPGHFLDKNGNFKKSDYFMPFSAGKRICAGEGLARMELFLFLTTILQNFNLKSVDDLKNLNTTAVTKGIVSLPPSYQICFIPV
# Method: (§4) Direct CYP inhibition studies were conducted using conditions described previously ([43]) following incubation of isoform-specific substrates with human liver microsomes. The formation of known metabolites mediated by a specific CYP isoform was monitored. CYP isoform-specific pathways (and positive control inhibitors) included CYP1A2: phenacetin O-deethylation (furafylline), CYP2B6: bupropion hydroxylation (PPP), CYP2C8: amodiaquine deethylation (quercetin) CYP2C9: tolbutamide methylhydroxylation (sulfaphenazole), CYP2C19: (S)-mephenytoin 4’-hydroxylation (ticlopidine), CYP2D6: dextromethorphan O-demethylation (quinidine), and CYP3A: midazolam 1’-hydroxylation and testosterone 6β-hydroxylation (ketoconazole). […] The organic solvent content was maintained at less than 1% (v/v). NADPH was added to initiate the reaction which was then quenched by the addition of acetonitrile containing internal standard at specified times. Concentrations of the isoform-specific metabolites were quantified by LC-MS (Waters Xevo TQD triple quadrupole MS coupled to a Waters Acquity UPLC system) relative to calibration standards prepared in pre-quenched microsomal matrix.
# (§5) Time dependent inhibition was assessed using an “IC50 shift” method based on a previous publication ([44]). […] A shift in the IC50 in the presence of NADPH (relative to the absence) was used as an indication of time dependent inhibition. Reference direct and time-dependent inhibitors were included in the assays.
# CYP3A4/5 = experiment: Cytochrome P450 inhibition, human liver microsomes; format: in vitro ADME; details: for IC50: read-out: Direct inhibition IC50; for IC50 at 30 min: read-out: Time-dependent inhibition IC50
# Method: as §4, §5
# Sequence of hERG (Q12809 whole entry): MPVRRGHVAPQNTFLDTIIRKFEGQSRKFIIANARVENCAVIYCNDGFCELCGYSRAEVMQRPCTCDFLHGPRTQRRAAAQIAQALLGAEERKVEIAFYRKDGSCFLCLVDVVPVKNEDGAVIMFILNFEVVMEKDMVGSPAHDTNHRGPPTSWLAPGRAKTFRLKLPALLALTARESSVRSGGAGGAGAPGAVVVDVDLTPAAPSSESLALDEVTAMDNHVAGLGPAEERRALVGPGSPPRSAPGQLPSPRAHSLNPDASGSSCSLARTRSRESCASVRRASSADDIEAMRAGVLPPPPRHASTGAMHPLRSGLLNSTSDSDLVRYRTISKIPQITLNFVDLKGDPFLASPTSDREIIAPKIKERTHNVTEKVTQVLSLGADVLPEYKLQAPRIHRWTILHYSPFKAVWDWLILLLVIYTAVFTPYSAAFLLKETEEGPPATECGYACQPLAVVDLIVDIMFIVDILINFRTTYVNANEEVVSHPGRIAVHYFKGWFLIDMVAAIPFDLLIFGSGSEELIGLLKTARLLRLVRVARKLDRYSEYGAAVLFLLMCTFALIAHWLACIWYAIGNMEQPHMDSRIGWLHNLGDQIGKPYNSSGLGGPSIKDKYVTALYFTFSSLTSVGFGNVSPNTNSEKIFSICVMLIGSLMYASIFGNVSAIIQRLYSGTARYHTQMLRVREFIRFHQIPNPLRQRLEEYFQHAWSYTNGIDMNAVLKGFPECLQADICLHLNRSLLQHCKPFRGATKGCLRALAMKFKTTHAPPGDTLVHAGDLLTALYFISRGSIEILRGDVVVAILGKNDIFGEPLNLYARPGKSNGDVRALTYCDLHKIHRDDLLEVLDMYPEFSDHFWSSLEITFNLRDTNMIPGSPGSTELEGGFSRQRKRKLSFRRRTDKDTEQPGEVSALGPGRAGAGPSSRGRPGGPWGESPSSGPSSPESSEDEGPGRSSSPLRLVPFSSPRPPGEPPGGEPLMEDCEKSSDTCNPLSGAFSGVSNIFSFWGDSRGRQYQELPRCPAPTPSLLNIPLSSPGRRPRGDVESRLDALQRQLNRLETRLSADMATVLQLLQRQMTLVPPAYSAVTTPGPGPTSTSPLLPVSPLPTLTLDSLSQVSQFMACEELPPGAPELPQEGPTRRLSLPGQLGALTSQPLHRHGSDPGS
# T1 sequence (Q01959 whole entry): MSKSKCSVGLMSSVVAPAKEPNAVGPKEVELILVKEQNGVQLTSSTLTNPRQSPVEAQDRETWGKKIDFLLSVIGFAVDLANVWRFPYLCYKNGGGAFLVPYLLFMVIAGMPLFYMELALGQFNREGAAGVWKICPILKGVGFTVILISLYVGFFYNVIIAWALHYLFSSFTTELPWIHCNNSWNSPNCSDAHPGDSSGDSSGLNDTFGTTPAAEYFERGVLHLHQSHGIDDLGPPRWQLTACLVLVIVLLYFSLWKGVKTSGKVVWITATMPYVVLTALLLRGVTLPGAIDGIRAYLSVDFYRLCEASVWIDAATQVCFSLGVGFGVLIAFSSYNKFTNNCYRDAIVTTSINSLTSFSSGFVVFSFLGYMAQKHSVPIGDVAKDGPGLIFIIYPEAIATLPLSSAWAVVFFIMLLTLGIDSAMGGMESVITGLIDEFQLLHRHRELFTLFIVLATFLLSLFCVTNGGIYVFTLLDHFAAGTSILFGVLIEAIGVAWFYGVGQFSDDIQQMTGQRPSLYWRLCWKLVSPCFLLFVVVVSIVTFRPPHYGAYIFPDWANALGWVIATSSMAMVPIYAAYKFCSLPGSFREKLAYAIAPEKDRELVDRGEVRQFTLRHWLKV
# T2 sequence (P34972 whole entry): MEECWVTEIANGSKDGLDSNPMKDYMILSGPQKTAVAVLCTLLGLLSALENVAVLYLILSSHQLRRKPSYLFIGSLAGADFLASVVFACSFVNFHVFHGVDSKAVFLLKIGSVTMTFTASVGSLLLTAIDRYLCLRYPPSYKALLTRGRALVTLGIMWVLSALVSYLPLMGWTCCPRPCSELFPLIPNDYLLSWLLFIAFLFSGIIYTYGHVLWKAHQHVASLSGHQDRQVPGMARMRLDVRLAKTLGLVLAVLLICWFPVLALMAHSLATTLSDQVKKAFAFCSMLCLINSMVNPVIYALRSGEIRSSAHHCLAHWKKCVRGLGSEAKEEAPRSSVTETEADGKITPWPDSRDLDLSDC
smiles,measurement,setting,value
Cc1[nH]c2nc(N)nc(C)c2c1-c1ccc(C#N)c2c1OCO2 [DNDI-6174],inhibition at 1 µM,hERG; 1 μM,3.81%
same,inhibition at 10 µM,hERG; 10 μM,48%
same,EC50,"[1]; DDD01716002 Res 1, read-out: EC50 (representative curve, Fig. 2A)",1276 ± 2 nM
same,EC50,"[1]; WT, read-out: EC50 (representative curve, Fig. 2A)",22 ± 2 nM
same,EC50,"[1]; Wild-type promastigotes, read-out: EC50 values",24 ± 1 nM
same,EC50,"[1]; read-out: EC50 values, DDD01716002 Res 1 (S207P)",779 ± 98 nM
same,EC50,"[1]; read-out: EC50 values, DDD01716002 Res 2 (G31A)",829 ± 63 nM
same,EC50,"[1]; read-out: EC50 values, DDD01716002 Res 3 (F227I)",84 ± 3 nM
same,EC50,"[1]; read-out: EC50 values, DNDI-6174 Res 1 (S35N/S206N)",431 ± 16 nM
same,EC50,"[1]; read-out: EC50 values, DNDI-6174 Res 2 (D231E)",3950 ± 228 nM
same,EC50,"[1]; read-out: EC50 values, DNDI-6174 Res 3 (S207P)",1500 ± 91 nM
same,EC50,"[1]; read-out: EC50 values, DNDI-6174 Res 4 (G31A)",2700 ± 145 nM
same,EC50,"[1]; read-out: EC50 values, DNDI-6174 Res 5 (S206N)",157 ± 5 nM
same,Microsome predicted in vivo CLplasma,[2]; Human,0.86 mL/min/kg
same,In vitro Microsome CLint,"[2]; Human, 2 independent experiments, ± standard error of estimate",7.2 ± 1.2 µL/min/mg
same,microsomal CLint at 0.5 µM,"[2]; human, liver microsomes, pH 7.4, Human, 2 independent experiments, ± standard error of estimate, read-out: In vitro Microsome CLint",6.4 ± 0.75 µL/min/mg
same,remaining activity at 10 µM,dopamine transporter,60.6%
same,remaining activity at 10 µM,CB2,96.1%
same,CC50,[3],> 50000 nM
same,EC50,[4],75 ± 2 nM
same,CC50,[5],> 50000 nM
same,IC50,"CYP2C8; CYP2C8, read-out: Direct inhibition IC50",> 20000 nM
same,IC50,"CYP2C8; with NADPH preincubation, read-out: Time-dependent inhibition IC50",3200 nM
same,IC50,"CYP2C8; without NADPH preincubation, read-out: Time-dependent inhibition IC50",> 20000 nM
same,IC50,"CYP3A4/5; probe midazolam (1'-hydroxylation), CYP3A4/5, midazolam",> 20000 nM
same,IC50 at 30 min,"CYP3A4/5; probe midazolam (1'-hydroxylation), midazolam, with NADPH preincubation",1900 nM
same,IC50 at 30 min,"CYP3A4/5; probe midazolam (1'-hydroxylation), midazolam, without NADPH preincubation",> 20000 nM
same,IC50,"CYP3A4/5; probe testosterone (6β-hydroxylation), CYP3A4/5, testosterone",12300 nM
same,IC50 at 30 min,"CYP3A4/5; probe testosterone (6β-hydroxylation), testosterone, with NADPH preincubation",710 nM
same,IC50 at 30 min,"CYP3A4/5; probe testosterone (6β-hydroxylation), testosterone, without NADPH preincubation",8000 nM
